{"source": "BindingDB's records for doi:10.1021/jm970414b", "about": "(University of Michigan, 1997)", "molecular_target": "Glutathionylspermidine synthetase/amidase (Escherichia coli) (UniProt P0AES0)", "sequence (P0AES0 whole entry, looked up)": "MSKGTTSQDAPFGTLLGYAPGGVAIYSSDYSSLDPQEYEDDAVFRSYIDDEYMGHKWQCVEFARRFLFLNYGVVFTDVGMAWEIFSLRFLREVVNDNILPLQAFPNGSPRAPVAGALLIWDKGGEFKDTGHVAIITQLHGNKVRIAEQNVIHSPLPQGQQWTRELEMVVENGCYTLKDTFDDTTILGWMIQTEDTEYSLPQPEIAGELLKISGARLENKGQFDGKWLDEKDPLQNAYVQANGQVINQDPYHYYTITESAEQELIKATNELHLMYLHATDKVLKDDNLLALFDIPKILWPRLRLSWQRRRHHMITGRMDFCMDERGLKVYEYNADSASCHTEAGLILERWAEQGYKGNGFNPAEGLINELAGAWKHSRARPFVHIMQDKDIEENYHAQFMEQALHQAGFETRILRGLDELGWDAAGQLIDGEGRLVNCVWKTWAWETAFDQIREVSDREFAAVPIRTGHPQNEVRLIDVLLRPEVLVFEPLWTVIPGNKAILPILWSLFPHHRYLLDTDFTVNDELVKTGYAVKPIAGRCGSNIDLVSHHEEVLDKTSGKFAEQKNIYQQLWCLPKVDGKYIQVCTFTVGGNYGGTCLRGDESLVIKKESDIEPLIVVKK", "test": "Inhibition of Glutathionylspermidine synthetase from Escherichia coli, value taken from literature", "note": "pKi: −log10 of the molar value."}
{"smiles": "C[C@H](NC(=O)CC[C@H](N)C(=O)O)C(=O)NCP(=O)(O)OCCCNCCCCN", "note": "[2-Amino-4-[1-({[3-(4-amino-butylamino)-propoxy]-hydroxy-phosphorylmethyl}-carbamoyl)-ethylcarbamoyl]-butyric acid]", "values": [{"measurement": "pKi", "result": 4.85}]}
